Measured values from patent US6890727B2, “Diagnostic assay for Alzheimer's disease: assessment of Aβ abnormalities” (The General Hospital Corporation, priority 1994, dated 2005).

Key:
[1] = biological target: T1, human Aβ1-40 (Homo sapiens, UniProt P05067); test: Human Aβ1-40 aggregation (0.2μ filtration) after incubation with various metal ions; type: physicochemical; settings: metal ions 3 μM, equimolar basis, peptide 1.6 μM
T1 construct: made in house; host or cells: chemical synthesis (solid-phase Fmoc)
T1 sequence (P05067 672-711): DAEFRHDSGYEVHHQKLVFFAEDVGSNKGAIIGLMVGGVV
From the text: The atomic number of the metal species is indicated. […] Data points are in duplicate.

[2] = biological target: T2, Aβ (Homo sapiens, UniProt P05067); test: SDS Tris/Tricine gel electrophoresis of Aβ incubated with Zn2+; settings: Zn^2+ 200 μM, 1-24 h, 20° C.
T2 construct: purchased Sigma; Bachem (results also replicated with peptide from the Keck Laboratory, Yale); host or cells: chemical synthesis
T2 sequence (P05067 672-711): as above
Procedure: To further test whether zinc induces irreversible precipitation of Aβ in the absence of kaolin, Aβ incubated with Zn^2+ (200 μM, 1-24 h, 20° C.) was subjected to SDS Tris/Tricine gel electrophoresis.

[3] = 65Zn2+ binding to immobilized peptide (dot-blot, Scatchard competition analysis); settings: unlabeled metal ions 50 μM total
Procedure: ^65Zn^2+ Binding Studies—Dissolved peptides (1.2 nMol, unless other wise stated) were dot-blotted onto polyvinylidene difluoride membrane (0.2-μm pore size; Pierce Chemical Co.), washed twice with chelating buffer (200 μl×100 mM NaCl, 20 mM Tris-HCl, 1 mM EDTA, pH 7.4), then five times with blocking buffer (200 μl×100 mM NaCl, 20 mM Tris-HCl, 1 mM MnCl2, pH 7.4), and then incubated (60 min, 20° C.) with ^65Zn (unless otherwise stated 130,000 cpm, […] ^65ZnCl2 in 200 μl of blocking buffer±competing metal ion chloride). The dot-blot was then washed with blocking buffer (5×200 μl), the dot excised, placed in a test tube, and assayed by γ-counting (11% efficiency). The equilibration volume for stoichiometry estimates was regarded as 6×200 μl. The 214 nm UV absorbance of the unbound flow-through was assayed to determine the total amount of peptide remaining bound onto the membrane. […] To alter the pH, the ^65Zn incubation was carried out in the presence of 100 mM buffer: MOPS (pH 6.5-7.0), MES (pH 5.0-6.0), acetate (pH 3.5-4.5). The dot-blot apparatus was washed with detergent and EDTA (50 mM) then rinsed and siliconized between use.
Aliquots of Aβ were incubated (60 min) with ^65Zn^2+ in the presence of varying concentrations of unlabeled Zn^2+ (0.01-50 μM total). Values shown are means±S.D., n≧3. […] (FIG. 1b) depicts specificity of the Zn^2+ binding site for various metals. Aβ was incubated (60 min) with ^65 Zn^2+ (157 nM, 138,000 cpm) and competing unlabeled metal ions (50 μM total). […] Percent binding of total counts ^65Zn^2+/min added is corrected for the amounts (in nanomoles) of peptides adhering to the membrane. […] 157 nM ^65Zn (138,000 cpm) is used in this experiment to probe immobilized peptide (1.6 nmol).

## [Zn+2] [Zn^2+, zinc]
[1]
  induction of aggregation of human Aβ1-40 among metal ions tested: induce significant aggregation
[2]
  covalent or SDS-resistant polymerization of Aβ: does not induce covalent or SDS-resistant polymerization
[3]
  competition of unlabeled metal ion with ^65Zn^2+ for Aβ: capable of competing off the label
